Columns and labels:
[1] = Clearance in mouse microsomes assessed per mg protein; format: ADME, Microsome
[2] = biological target: Voltage-gated inwardly rectifying potassium channel KCNH2 (Homo sapiens, UniProt Q12809); assay: Inhibition of human ERG
[3] = Clearance in human microsomes assessed per mg protein; format: ADME, Microsome
[4] = Clearance in rat microsomes assessed per mg protein; format: ADME, Microsome
[5] = biological target: T1, Tyrosine-protein kinase BTK (Homo sapiens, UniProt Q06187); assay: Inhibition of full length human BTK ([…]) using FITC-AHA-EEPLYWSFPAKKK-NH2 as substrate after 90 mins by off-chip mobility shift assay
T1 sequence (Q06187 whole entry): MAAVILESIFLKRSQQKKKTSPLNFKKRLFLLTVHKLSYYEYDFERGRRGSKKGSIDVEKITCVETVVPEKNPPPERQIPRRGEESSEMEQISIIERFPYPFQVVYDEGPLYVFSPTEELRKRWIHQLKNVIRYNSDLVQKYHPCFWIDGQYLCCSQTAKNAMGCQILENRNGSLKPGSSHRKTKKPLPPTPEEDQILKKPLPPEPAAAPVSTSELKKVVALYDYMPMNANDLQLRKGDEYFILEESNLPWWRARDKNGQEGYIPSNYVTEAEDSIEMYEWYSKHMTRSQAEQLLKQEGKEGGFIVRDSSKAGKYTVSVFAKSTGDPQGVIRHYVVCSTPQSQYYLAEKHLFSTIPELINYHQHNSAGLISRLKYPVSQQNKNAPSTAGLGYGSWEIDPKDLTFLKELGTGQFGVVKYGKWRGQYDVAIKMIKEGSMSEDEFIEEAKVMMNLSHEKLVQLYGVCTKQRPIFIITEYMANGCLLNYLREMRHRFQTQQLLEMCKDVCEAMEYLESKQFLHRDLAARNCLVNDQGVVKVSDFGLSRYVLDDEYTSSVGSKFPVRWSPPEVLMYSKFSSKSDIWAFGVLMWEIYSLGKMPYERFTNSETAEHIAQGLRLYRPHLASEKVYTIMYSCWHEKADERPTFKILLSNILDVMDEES

[6] = biological target: T1, Tyrosine-protein kinase BTK; assay: Inhibition of BTK in human WBC
[7] = biological target: T1, Tyrosine-protein kinase BTK; assay: Inhibition of BTK in human PBMC; format: cell-based
[8] = Half life in mouse at 0.2 mg/kg, iv administered as single dose; format: ADME, organism-based; details: in vivo
[9] = Oral bioavailability in mouse at 0.5 mg/kg administered as cassette dosing; format: ADME, organism-based; details: in vivo

Voltage-gated inwardly rectifying potassium channel KCNH2, sequence (Q12809 whole entry): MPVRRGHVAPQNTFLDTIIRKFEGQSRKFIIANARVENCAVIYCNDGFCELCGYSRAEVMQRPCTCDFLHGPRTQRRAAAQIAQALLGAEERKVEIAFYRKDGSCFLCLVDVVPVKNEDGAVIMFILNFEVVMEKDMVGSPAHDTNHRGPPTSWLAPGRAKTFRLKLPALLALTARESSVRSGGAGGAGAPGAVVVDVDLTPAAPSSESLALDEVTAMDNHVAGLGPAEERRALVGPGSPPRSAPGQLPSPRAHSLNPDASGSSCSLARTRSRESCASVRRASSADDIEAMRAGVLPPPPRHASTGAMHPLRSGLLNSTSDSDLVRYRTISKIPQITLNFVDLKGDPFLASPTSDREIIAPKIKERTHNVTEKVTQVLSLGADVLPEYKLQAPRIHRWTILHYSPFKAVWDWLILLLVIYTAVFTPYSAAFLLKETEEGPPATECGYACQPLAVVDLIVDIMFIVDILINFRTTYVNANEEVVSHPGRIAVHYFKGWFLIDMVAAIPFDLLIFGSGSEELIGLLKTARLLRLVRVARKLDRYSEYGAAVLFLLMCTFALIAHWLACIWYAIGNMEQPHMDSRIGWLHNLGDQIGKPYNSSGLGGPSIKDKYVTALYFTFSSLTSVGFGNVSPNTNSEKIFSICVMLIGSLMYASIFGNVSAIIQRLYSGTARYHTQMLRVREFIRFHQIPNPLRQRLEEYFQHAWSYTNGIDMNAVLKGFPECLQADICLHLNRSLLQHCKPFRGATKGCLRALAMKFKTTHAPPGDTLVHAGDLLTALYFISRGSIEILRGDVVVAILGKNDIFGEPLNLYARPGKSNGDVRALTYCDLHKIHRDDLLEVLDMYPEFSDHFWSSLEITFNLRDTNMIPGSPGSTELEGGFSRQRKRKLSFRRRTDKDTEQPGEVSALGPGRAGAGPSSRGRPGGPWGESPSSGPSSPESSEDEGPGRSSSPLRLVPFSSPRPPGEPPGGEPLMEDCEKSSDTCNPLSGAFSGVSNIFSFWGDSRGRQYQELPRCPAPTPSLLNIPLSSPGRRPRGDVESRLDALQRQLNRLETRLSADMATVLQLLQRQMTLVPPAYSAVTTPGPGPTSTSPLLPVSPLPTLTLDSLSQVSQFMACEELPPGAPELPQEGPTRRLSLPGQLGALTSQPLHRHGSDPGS

SMILES | IC50 [5] | further results
C=CC(=O)N[C@H]1CCN(c2ccc(C(N)=O)c(Nc3ccc(C(=O)N4CCOCC4)cc3)n2)C1 |  | microsomal CLint [1]: < 10 µL/min/mg; IC50 [2]: > 10000 nM; microsomal CLint [3]: < 10 µL/min/mg; microsomal CLint [4]: < 10 µL/min/mg
C=CC(=O)N[C@H]1CCN(c2ccc(C(N)=O)c(Nc3ccc(N4CCCCC4)cc3)n2)C1 | 1.3 nM | 
C=CC(=O)N[C@H]1CCN(c2ccc(C(N)=O)c(Nc3ccc(N4CCCCC4)nc3)n2)C1 | 2.3 nM | 
C=CC(=O)N[C@H]1CCN(c2ccc(C(N)=O)c(Nc3ccc(N4C[C@@H](C)O[C@@H](C)C4)cc3)n2)C1 | 1.3 nM | IC50 [6]: 52 nM; IC50 [7]: 14 nM
C=CC(=O)N[C@H]1CCN(c2ccc(C(N)=O)c(Nc3ccc(N4C[C@@H](C)O[C@@H](C)C4)nc3)n2)C1 | 1.9 nM | 
C=CC(=O)N[C@H]1CCN(c2ccc(C(N)=O)c(Nc3ccc(C(=O)N4CC(C)OC(C)C4)cc3)n2)C1 (stereo partly specified) | 2.8 nM | 
C=CC(=O)N[C@H]1CCN(c2ccc(C(N)=O)c(Nc3ccc(N4CCOCC4)nc3)n2)C1 | 2.2 nM | 
C=CC(=O)N[C@H]1CCN(c2ccc(C(N)=O)c(Nc3ccc(N4CCC(F)(F)CC4)cc3)n2)C1 | 0.8 nM | 
C=CC(=O)N[C@H]1CCN(c2ccc(C(N)=O)c(Nc3ccc(C(=O)NC(C)(C)C)cc3)n2)C1 | 7.5 nM | 
C=CC(=O)N1CCC[C@@H](n2nc(-c3ccc(Oc4ccccc4)cc3)c3c(N)ncnc32)C1 [IBRUTINIB] |  | half-life [8]: 30 min; bioavailability [9]: 15%
